≈ marks a conversion by molar mass, not a printed value.
Columns and labels:
in vivo [1] = details: NOD-SCID IL-2Rgamma-null, mouse, po, 10 mg/kg
[2] = Cmax in human RBC engrafted NOD-SCID IL-2Rgamma-null mouse infected with Plasmodium falciparum 3D7 0087/N9 at 10 mg/kg, po; type: ADME, organism-based; set-up: dose 10 mg/kg, route oral; details: in vivo
[3] = Cmax in human RBC engrafted NOD-SCID IL-2Rgamma-null mouse at 10 mg/kg, po; type: ADME, organism-based; set-up: dose 10 mg/kg, route oral; details: in vivo
Plasmodium falciparum [4] = assay: Antimalarial activity against Plasmodium falciparum 3D7 0087/N9 infected in human RBC engrafted NOD-SCID IL-2Rgamma-null mouse assessed as reduction in parasitemia administered orally 3 days post infection qd for 4 days measured 24 hrs after final dose by FACS analysis; type: functional; details: 3D7 0087/N9, po
in vivo [5] = details: NOD-SCID IL-2Rgamma-null, mouse, po, 10 mg/kg; remark: listed apart in the source
Mus musculus [6] = assay: AUC (0 to 10 hrs) in human RBC engrafted NOD-SCID IL-2Rgamma-null mouse at 10 mg/kg, po; type: ADME, organism-based, Plasma; set-up: time < 10 hr, dose 10 mg/kg, route oral; details: in vivo
Mus musculus [7] = assay: AUC (0 to 10 hrs) in human RBC engrafted NOD-SCID IL-2Rgamma-null mouse infected with Plasmodium falciparum 3D7 0087/N9 at 10 mg/kg, po; type: ADME, organism-based, Plasma; set-up: time < 10 hr, dose 10 mg/kg, route oral; details: in vivo
Plasma = assay: Plasma protein binding in human by chromatographic method; type: ADME, cell-free
[8] = Aqueous solubility of the compound at pH 6.5; type: physicochemical
[9] = Inhibition of Plasmodium berghei C-terminal hexa-His tagged DHODH expressed in Escherichia coli by DCIP reduction assay
Liver = assay: Intrinsic clearance in mouse liver microsomes; type: ADME, Microsome
[10] = target: T1, Dihydroorotate dehydrogenase (Plasmodium falciparum, UniProt Q54A96)
T1 sequence (Q54A96 whole entry): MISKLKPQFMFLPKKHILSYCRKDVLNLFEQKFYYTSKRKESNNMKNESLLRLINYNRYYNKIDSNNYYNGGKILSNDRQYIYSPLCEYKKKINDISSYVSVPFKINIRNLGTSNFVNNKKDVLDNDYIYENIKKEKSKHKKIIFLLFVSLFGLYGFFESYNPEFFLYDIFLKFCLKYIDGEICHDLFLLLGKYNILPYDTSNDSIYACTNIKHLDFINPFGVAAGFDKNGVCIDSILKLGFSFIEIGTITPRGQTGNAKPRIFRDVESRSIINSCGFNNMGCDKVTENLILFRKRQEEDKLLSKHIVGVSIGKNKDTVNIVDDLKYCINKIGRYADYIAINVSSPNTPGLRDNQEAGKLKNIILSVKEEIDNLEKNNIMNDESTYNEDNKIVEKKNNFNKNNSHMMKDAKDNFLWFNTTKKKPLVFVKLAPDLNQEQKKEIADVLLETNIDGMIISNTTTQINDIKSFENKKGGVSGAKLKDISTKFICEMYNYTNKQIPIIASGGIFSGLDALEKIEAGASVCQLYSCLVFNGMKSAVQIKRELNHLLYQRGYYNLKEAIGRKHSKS
Description: Inhibition of Plasmodium falciparum C-terminal hexa-His tagged DHODH expressed in Escherichia coli by DCIP reduction assay

Liver microsomes = assay: Intrinsic clearance in human liver microsomes; type: ADME, Microsome
[11] = Lipophilicity, log D of the compound at pH 7.4; type: physicochemical; details: buffer
Plasmodium falciparum [12] = assay: Antimalarial activity against Plasmodium falciparum 3D7 by [3H]hypoxanthine incorporation assay in presence of human serum; type: functional, organism-based
[13] = Terminal elimination half life in Swiss outbred mouse at 20 mg/kg, po; type: ADME, organism-based; set-up: dose 20 mg/kg, route oral; details: in vivo, read-out: beta t1/2 (converted)
[14] = AUC (0 to infinity) in Swiss outbred mouse plasma at 20 mg/kg, po; type: ADME, organism-based; set-up: time infinity, dose 20 mg/kg, route oral
[15] = target: Dihydroorotate dehydrogenase (quinone), mitochondrial (Homo sapiens, UniProt Q02127)
Dihydroorotate dehydrogenase (quinone), mitochondrial, sequence (Q02127 whole entry): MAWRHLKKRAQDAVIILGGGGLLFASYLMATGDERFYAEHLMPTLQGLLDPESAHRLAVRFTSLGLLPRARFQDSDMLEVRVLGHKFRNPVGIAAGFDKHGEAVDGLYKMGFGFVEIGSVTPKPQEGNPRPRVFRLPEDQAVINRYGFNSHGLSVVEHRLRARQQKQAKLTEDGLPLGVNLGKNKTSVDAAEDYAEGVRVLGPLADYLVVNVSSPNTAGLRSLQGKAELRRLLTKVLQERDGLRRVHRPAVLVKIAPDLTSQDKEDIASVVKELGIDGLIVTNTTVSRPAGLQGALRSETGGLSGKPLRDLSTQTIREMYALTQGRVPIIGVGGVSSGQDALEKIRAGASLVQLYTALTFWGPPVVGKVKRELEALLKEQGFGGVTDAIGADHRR
Description: Inhibition of human C-terminal hexa-His tagged DHODH expressed in Escherichia coli by DCIP reduction assay

Mus musculus [16] = assay: Time plasma concentration remained above 1 uM in Swiss outbred mouse plasma at 20 mg/kg, po; type: ADME, organism-based; set-up: dose 20 mg/kg, route oral; details: in vivo
in vivo [17] = details: Swiss outbred, mouse, po, 20 mg/kg
[18] = Cmax in Swiss outbred mouse at 20 mg/kg, po; type: ADME, organism-based; set-up: dose 20 mg/kg, route oral; details: in vivo
[19] = AUC (0 to infinity) in Swiss outbred mouse plasma at 10 mg/kg, po; type: ADME, organism-based; set-up: time infinity, dose 10 mg/kg, route oral
Mus musculus [20] = assay: Time plasma concentration remained above 1 uM in Swiss outbred mouse plasma at 10 mg/kg, po; type: ADME, organism-based; set-up: dose 10 mg/kg, route oral; details: in vivo
[21] = Terminal elimination half life in Swiss outbred mouse at 10 mg/kg, po; type: ADME, organism-based; set-up: dose 10 mg/kg, route oral; details: in vivo, read-out: beta t1/2 (converted)
[22] = Cmax in Swiss outbred mouse at 10 mg/kg, po; type: ADME, organism-based; set-up: dose 10 mg/kg, route oral; details: in vivo
in vivo [23] = details: Swiss outbred, mouse, po, 10 mg/kg

| SMILES | PPB (Plasma) | solubility [8] | IC50 [9] | Intrinsic clearance (Liver) | IC50 [10] | Intrinsic clearance (Liver microsomes) | logD [11] | EC50 (Plasmodium falciparum [12]) | IC50 [15] | further results |
| --- | --- | --- | --- | --- | --- | --- | --- | --- | --- | --- |
| Cc1cc(Nc2cc(F)c(C(F)(F)F)c(F)c2)n2ncnc2n1 | – | – | – | – | – | – | – | – | – | Tmax (in vivo [1]): 2 h; Cmax [2]: 8.2 µM; Cmax [3]: 8.5 µM; ED50 (Plasmodium falciparum [4]): 19 mg/kg; ED90 (Plasmodium falciparum [4]): 59 mg/kg; Tmax (in vivo [5]): 3.3 h; AUC (Mus musculus [6]): 3848 µM·min; AUC (Mus musculus [7]): 3173 µM·min |
| CCc1nc2nc(C)cc(Nc3ccc(Cl)cc3)n2n1 | 86.1% | 170 µM (≈ 48.9 µg/mL) | 2300 nM | 63.1 µL/min/mg | 280 nM | 12.8 µL/min/mg | 2.8 | 790 nM | – | – |
| CCc1nc2nc(C)cc(Nc3ccc(C(F)(F)F)cc3)n2n1 | 87.5% | 39 µM (≈ 12.5 µg/mL) | 760 nM | 14.4 µL/min/mg | 87 nM | < 5 µL/min/mg | 3 | 58 nM | > 100000 nM | half-life [13]: 8.4 h; AUC(0-inf) [14]: 27.1 µM·h; Time (Mus musculus [16]): 5 h; Tmax (in vivo [17]): 1 h; Cmax [18]: 12.6 µM |
| CCc1nc2nc(C)cc(Nc3ccc(S(F)(F)(F)(F)F)cc3)n2n1 | 96.4% | 34 µM (≈ 12.9 µg/mL) | 1400 nM | 16.7 µL/min/mg | – | < 5 µL/min/mg | 3.3 | 100 nM | > 100000 nM | – |
| Cc1cc(Nc2ccc(Cl)cc2)n2nc(C(C)C)nc2n1 | 84.9% | 83 µM (≈ 25 µg/mL) | 2100 nM | 157.7 µL/min/mg | 330 nM | 14.1 µL/min/mg | 3.2 | 850 nM | – | – |
| Cc1cc(Nc2ccc(C(F)(F)F)cc2)n2nc(C3CC3)nc2n1 | 92.8% | 38 µM (≈ 12.7 µg/mL) | 2600 nM | 8.6 µL/min/mg | 140 nM | < 5 µL/min/mg | 3.3 | 150 nM | > 100000 nM | – |
| Cc1cc(Nc2ccc(S(F)(F)(F)(F)F)cc2)n2nc(C3CC3)nc2n1 | 97.7% | 16 µM (≈ 6.26 µg/mL) | 2000 nM | 12.6 µL/min/mg | – | < 5 µL/min/mg | 3.5 | 500 nM | > 100000 nM | – |
| Cc1cc(Nc2ccc(Cl)cc2)n2nc(C(C)(F)F)nc2n1 | 87.9% | 77 µM (≈ 24.9 µg/mL) | 1700 nM | 62.8 µL/min/mg | 38 nM | 16 µL/min/mg | 3 | 50 nM | > 100000 nM | – |
| CCC(F)(F)c1nc2nc(C)cc(Nc3ccc(C(F)(F)F)cc3)n2n1 | 93.2% | 17 µM (≈ 6.31 µg/mL) | 2500 nM | 6.5 µL/min/mg | 19 nM | < 5 µL/min/mg | 3.6 | 45 nM | > 100000 nM | AUC(0-inf) [19]: 10.9 µM·h; Time (Mus musculus [20]): 4 h; half-life [21]: 3.1 h; Cmax [22]: 3.5 µM; Tmax (in vivo [23]): 0.5 h |
| CCC(F)(F)c1nc2nc(C)cc(Nc3ccc(S(F)(F)(F)(F)F)cc3)n2n1 | 97.7% | 15 µM (≈ 6.44 µg/mL) | 4700 nM | 6.7 µL/min/mg | – | < 5 µL/min/mg | 3.9 | 550 nM | > 100000 nM | – |
| COCc1nc2nc(C)cc(Nc3ccc(C(F)(F)F)cc3)n2n1 | 75.6% | 150 µM (≈ 50.6 µg/mL) | 5500 nM | 13.3 µL/min/mg | 410 nM | 6.7 µL/min/mg | 2.5 | 1000 nM | – | – |
| COCc1nc2nc(C)cc(Nc3ccc(S(F)(F)(F)(F)F)cc3)n2n1 | 91.7% | 63 µM (≈ 24.9 µg/mL) | 3300 nM | 14.3 µL/min/mg | 390 nM | 5.6 µL/min/mg | 2.8 | 2100 nM | – | – |
| CCOc1nc2nc(C)cc(Nc3ccc(C(F)(F)F)cc3)n2n1 | 92.4% | 19 µM (≈ 6.41 µg/mL) | 2700 nM | 14.4 µL/min/mg | 56 nM | 7 µL/min/mg | 3.1 | 58 nM | > 100000 nM | half-life [13]: 1.4 h; AUC(0-inf) [14]: 20.7 µM·h; Time (Mus musculus [16]): 6 h; Tmax (in vivo [17]): 1 h; Cmax [18]: 5.8 µM |
| CCOc1nc2nc(C)cc(Nc3ccc(S(F)(F)(F)(F)F)cc3)n2n1 | 97.7% | 4 µM (≈ 1.58 µg/mL) | 470 nM | 11.3 µL/min/mg | 57 nM | < 5 µL/min/mg | 3.4 | 100 nM | > 100000 nM | half-life [13]: 2.7 h; AUC(0-inf) [14]: 10.1 µM·h; Time (Mus musculus [16]): 3 h; Tmax (in vivo [17]): 1 h; Cmax [18]: 1.1 µM |
| C[C@H]1[C@H](OC(=O)CCC(=O)O)O[C@@H]2O[C@@]3(C)CC[C@H]4[C@H](C)CC[C@@H]1[C@@]24OO3 [ARTESUNATE] | – | – | – | – | – | – | – | – | – | ED90 (Plasmodium falciparum [4]): 12.7 mg/kg |
| CCN(CC)CCCC(C)Nc1ccnc2cc(Cl)ccc12 (stereo unspecified) [CHLOROQUINE] | – | – | – | – | – | – | – | – | – | ED50 (Plasmodium falciparum [4]): 3.2 mg/kg; ED90 (Plasmodium falciparum [4]): 4.9 mg/kg |

Reference: ChEMBL document CHEMBL1955725, “Structure-guided lead optimization of triazolopyrimidine-ring substituents identifies potent Plasmodium falciparum dihydroorotate dehydrogenase inhibitors with clinical candidate potential” (J Med Chem, 2011)
